Consider 4 molecules from patent publication US9012648B2, “Haptens of risperidone and paliperidone” (Janssen Pharmaceutica NV, priority 2012, dated 2015).

Assay [1] can be described thus: ELISA reactivity of hybridoma supernatants, Ag = Bt-Compound#1 (second TABLE 1). Format: binding, mouse. (In general: In an ELISA, binding on a coated surface is turned into a signal by an enzyme label.)
In a further assay the test system is hybridoma subclone 2A5. Description: Competition ELISA, hybridoma subclone 2A5 supernatant (FIG. 3). In kind it is binding, mouse. The protocol:
Supernatants were also tested by competition ELISA to determine if the signals were specific to either risperidone or paliperidone. […] In this competitive format as show in FIG. 4, a low level of analyte (risperidone) results in high signal, whereas a high level of analyte (risperidone) results in low signal. The amount of risperidone in the sample can be calculated from the loss of fluorescence compared to a control sample with no drug present.

The mark [2] stands for this setting: Dilution 10800, duplicate wells.

Values joined by “and” are separate entries in the source; they are usually repeats but may differ in a detail not shown here. Equal values may be shown once.

With `Cc1nc2n(c(=O)c1CCN1CCC(c3noc4cc(OCCN)ccc34)CC1)CCCC2O` (stereo not shown) [Example 1, 3-(2-(4-(6-(2-aminoethoxy)benzo[d]isoxazol-3-yl)piperidin-1-yl)ethyl)-9-hydroxy-2-methyl-6,7,8,9-tetrahydro-4H-pyrido[1,2-a]pyrimidin-4-one], the ELISA reactivity was 3.2562 and 3.1217 in assay [1] (Dilution 400, duplicate wells); 1.3591 and 1.2607 in assay [1] (Dilution 1200, duplicate wells); 0.3745 and 0.3281 in assay [1] (Dilution 3600, duplicate wells); 0.0918 and 0.0879 in assay [1] (setting [2]).
As for “2-(2,5-dioxo-2,5-dihydro-1H-pyrrol-1-yl)-N-(2-((3-(1-(2-(9-hydroxy-2-methyl-4-oxo-6,7,8,9-tetrahydro-4H-pyrido[1,2-a]pyrimidin-3-yl)ethyl)piperidin-4-yl)benzo[d]isoxazol-6-yl)oxy)ethyl)acetamide-keyhole limpet hemocyanin-conjugate [Example 5]”, the ELISA reactivity in assay [1] (Dilution 400, duplicate wells) is 3.2897 and 3.1103; in assay [1] (Dilution 1200, duplicate wells), 1.4605 and 1.4817; in assay [1] (Dilution 3600, duplicate wells) it was 0.4617 and 0.4159; in assay [1] (setting [2]), 0.1149 and 0.1127.
For the molecule `Cc1nc2n(c(=O)c1CCN1CCC(c3noc4cc(F)ccc34)CC1)CCCC2O` (stereo not shown) [paliperidone], the “competition ELISA reactivity (in words)” value in the assay with hybridoma subclone 2A5 is listed as “reactivity”.
Still for that read-out and setting: for `Cc1nc2n(c(=O)c1CCN1CCC(c3noc4cc(F)ccc34)CC1)CCCC2` [risperidone] the value was “reactivity”.
